In patent publication EP4603105A1, “PHARMACEUTICAL COMPOSITION CONTAINING CYCLIC COMPOUND HAVING SELECTIVE KRAS INHIBITORY EFFECT AGAINST HRAS AND NRAS” (CHUGAI SEIYAKU KABUSHIKI KAISHA, priority 2022, dated 2024):
Where a SMILES comes first, the peptide text is derived from it. Bridges are numbered along the chain shown (N, C = ends). [ ]: non-standard residue; d: D form. The star is where a group is joined. hPhe(3-Cl-4-CF3) = N[C@@H](CCc1ccc(C(F)(F)F)c(Cl)c1)C(=O)O; NPrPhe(4-CF3) = CCCN[C@@H](Cc1ccc(C(F)(F)F)cc1)C(=O)O; NEtPhe(4-F) = CCN[C@@H](Cc1ccc(F)cc1)C(=O)O; NMeGly(cPent) = CN[C@H](C(=O)O)C1CCCC1; NMeD = CN[C@@H](CC(=O)O)C(=O)O; NMeL = CN[C@@H](CC(C)C)C(=O)O; Morpholide = C1CN(*)CCO1; NMeA = CN[C@@H](C)C(=O)O; Ac5c = NC1(C(=O)O)CCCC1; Aze = O=C(O)[C@@H]1CCN1; Sar = CNCC(=O)O

Experiments:
HRAS wild-type protein = HRAS wild-type protein (Homo sapiens, UniProt P01112); test: Binding to HRAS by surface plasmon resonance (SPR), KD and KD ratio to KRAS
Sequence of HRAS wild-type protein (P01112 whole entry): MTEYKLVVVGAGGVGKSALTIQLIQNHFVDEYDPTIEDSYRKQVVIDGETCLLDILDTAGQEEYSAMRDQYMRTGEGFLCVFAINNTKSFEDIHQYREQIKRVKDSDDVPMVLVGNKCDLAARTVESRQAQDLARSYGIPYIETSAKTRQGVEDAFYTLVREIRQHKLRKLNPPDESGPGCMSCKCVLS
In short: (§1)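 Compound binding is evaluated by SPR single-cycle kinetics, with concentrations added intermittently from low to high for 75 s each. Target surfaces carry GDP-loaded biotinylated Avi-RAS at about 100–300 RU, regenerated after each cycle; temperature 30°C. A 1:1 binding model gives KD.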

[1] = molecular target: GDP-bound NRAS wild-type protein (Homo sapiens, UniProt P01111); test: Binding to NRAS by surface plasmon resonance (SPR), KD and KD ratio to KRAS
Sequence of GDP-bound NRAS wild-type protein (P01111 whole entry): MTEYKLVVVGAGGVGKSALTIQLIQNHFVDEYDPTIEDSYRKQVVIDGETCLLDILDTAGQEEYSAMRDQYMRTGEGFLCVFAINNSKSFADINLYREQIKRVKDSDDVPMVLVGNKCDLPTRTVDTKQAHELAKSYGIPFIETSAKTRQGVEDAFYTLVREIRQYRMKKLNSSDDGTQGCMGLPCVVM
In short: as §1

[2] = tested on: human lung cancer strain NCI-H441; format: cell-based
In short: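 Proliferation was scored by […] measured after the reagent was added to cultures kept at 37°C in 5% carbon dioxide.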

[3] = ratio of KD for HRAS wild-type protein to KD for KRAS
[4] = ratio of KD for GDP-bound NRAS wild-type protein to KD for KRAS
[5] = ratio of the KD value with respect to HRAS wild-type protein to the KD value with respect to KRAS
[6] = ratio of the KD value with respect to GDP-bound NRAS wild-type protein to the KD value with respect to KRAS

Row | Compound | IC50 [2] | HRAS /KRAS (HRAS wild-type protein; [3]) | NRAS /KRAS [1, 4] | HRAS /KRAS (HRAS wild-type protein; [5]) | NRAS /KRAS [1, 6]
1 | CCO[C@@H]1C[C@H]2C(=O)NC3(CCC3)C(=O)N(C)[C@@H](C3CCCC3)C(=O)N(CCC3CCC3)[C@H](C(=O)N(C)C)CC(=O)N(C)[C@@H](CC)C(=O)N[C@@H]([C@@H](C)CC)C(=O)N(C)CC(=O)N(C)[C@H]3CCCCCN(C3=O)[C@@H](Cc3ccc(C(F)(F)F)cc3)C(=O)N(C)CC(=O)N[C@@H](CCc3cc(F)c(C(F)(F)F)c(F)c3)C(=O)N2C1 [PP0635] | 85.6 nM | – | – | B (a compound having 3 or more and less than 10 is denoted as B) | B (a compound having 3 or more and less than 10 is denoted as B)
2 | CC[C@H](C)[C@@H]1NC(=O)[C@H](CC(C)C)N(C)C(=O)C[C@@H](C(=O)N2CCOCC2)N(C)C(=O)[C@H](C2CCCC2)N(C)C(=O)C2(CCCC2)NC(=O)[C@@H]2CCCN2C(=O)[C@H](CCc2ccc(C(F)(F)F)c(Cl)c2)NC(=O)CN(C)C(=O)[C@H](Cc2ccc(F)cc2)N(CC)C(=O)[C@@H]2CCN2C(=O)[C@H](C)N(C)C1=O [PP0218] ([NMeL]I[NMeA][Aze][NEtPhe(4-F)][Sar][hPhe(3-Cl-4-CF3)]P[Ac5c][NMeGly(cPent)][NMeD]-Morpholide; lactam N-11) | 3.9 nM | C (A compound having a KD ratio of 0.1 or more and less than 3 is denoted as C) | C (A compound having a KD ratio of 0.1 or more and less than 3 is denoted as C) | – | –
3 | CCO[C@@H]1C[C@H]2C(=O)NC3(CC(C)(C)C3)C(=O)N(C)[C@@H](C(CC)CC)C(=O)N(C)[C@H](C(=O)N3CCCC3)CC(=O)N(C)[C@@H](C)C(=O)N[C@@H]([C@@H](C)CC)C(=O)N(C)CC(=O)N(C)[C@H]3C/C=C\CCN(C3=O)[C@@H](Cc3ccc(C)cc3)C(=O)N(C)CC(=O)N[C@@H](CCc3cc(F)c(C(F)(F)F)c(F)c3)C(=O)N2C1 [PP2145] | 17.2 nM | – | – | A (a compound having 10 or more and less than 20 is denoted as A) | A (a compound having 10 or more and less than 20 is denoted as A)
4 | CCCN1C(=O)CN(C)C(=O)CN(C)C(=O)[C@H]([C@@H](C)CC)NC(=O)[C@H](CC(C)C)N(C)C(=O)C[C@@H](C(=O)N2CCOCC2)N(C)C(=O)[C@H](C2CCCC2)N(C)C(=O)C2(CCCC2)NC(=O)[C@@H]2CCN2C(=O)[C@H](CCc2ccc(C(F)(F)F)c(Cl)c2)NC(=O)CN(C)C(=O)[C@@H]1Cc1ccc(C(F)(F)F)cc1 [PP0260] ([NMeL]I[Sar][Sar][NPrPhe(4-CF3)][Sar][hPhe(3-Cl-4-CF3)][Aze][Ac5c][NMeGly(cPent)][NMeD]-Morpholide; lactam N-11) | 16.8 nM | C (A compound having a KD ratio of 0.1 or more and less than 3 is denoted as C) | B (a compound having 3 or more and less than 10 is denoted as B) | – | –

Further lines, with some results ahead:

Row | IC50 [2] | Compound | HRAS /KRAS (HRAS wild-type protein; [3]) | NRAS /KRAS [1, 4] | HRAS /KRAS (HRAS wild-type protein; [5]) | NRAS /KRAS [1, 6]
5 | 1.9 nM | CC[C@H](C)[C@@H]1NC(=O)[C@@H]2CCCCCc3ccc(cc3)C[C@@H](C(=O)N(C)CC(=O)N[C@@H](CCc3ccc(C(F)(F)F)c(OC)c3)C(=O)N3C[C@H](OC4CCC4)C[C@H]3C(=O)NC3(CC(C)(C)C3)C(=O)N(C)[C@@H](C3CCCC3)C(=O)N(C)[C@H](C(=O)N(C)C)CC(=O)N2C)N2CC/C=C\C[C@@H](C2=O)N(C)C(=O)CN(C)C1=O [PP3073] | A (a compound having 10 or more and less than 20 is denoted as A) | A (a compound having 10 or more and less than 20 is denoted as A) | – | –
6 | 12.8 nM | CC[C@H](C)[C@@H]1NC(=O)[C@@H]2CCC/C=C/c3ccc(cc3)C[C@@H](C(=O)N(C)CC(=O)N[C@@H](CCc3ccc(Cl)c(Cl)c3)C(=O)N3CCC[C@H]3C(=O)NC3(CC(C)(C)C3)C(=O)N(C)[C@@H](C3CCCC3)C(=O)N(C)[C@H](C(=O)N3CCCC3)CC(=O)N2C)N2CC/C=C\C[C@@H](C2=O)N(C)C(=O)CN(C)C1=O [PP2602] | A (a compound having 10 or more and less than 20 is denoted as A) | A (a compound having 10 or more and less than 20 is denoted as A) | – | –
7 | 27 nM | CC[C@H](C)[C@@H]1NC(=O)[C@@H]2CCC/C=C/c3ccc(cc3)C[C@@H](C(=O)N(C)CC(=O)N[C@@H](CCc3ccc(Cl)c(Cl)c3)C(=O)N3C[C@H](OC4CCC4)C[C@H]3C(=O)NC3(CC(C)(C)C3)C(=O)N(C)[C@@H](C3CCCC3)C(=O)N(C)[C@H](C(=O)N3CCCC3)CC(=O)N2C)N2CC/C=C\C[C@@H](C2=O)N(C)C(=O)CN(C)C1=O [PP3053] | A (a compound having 10 or more and less than 20 is denoted as A) | A (a compound having 10 or more and less than 20 is denoted as A) | – | –
